The values below come from ChEMBL document CHEMBL4613212, “Insights of synthetic analogues of anti-leprosy agents” (Bioorg Med Chem, 2019).

Converted amounts (≈) assume the structure as drawn.

The test system of data set [1] is Mycobacterium tuberculosis. As to the kind of experiment: Antimycobacterial activity against Mycobacterium tuberculosis H37Rv infected in CF-1 mouse assessed as change in survival time at 16 mg/kg administrated daily for 14 days with food relative to control. The data set is classed as functional.
The subject of data set [2] is Mycobacterium tuberculosis. As to the kind of experiment: Antimycobacterial activity against Mycobacterium tuberculosis H37Rv infected in CF-1 mouse assessed as change in survival time at 9 mg/kg administrated daily for 14 days with food relative to control. Format: functional.
Data set [3] has as its system Mycobacterium tuberculosis. In words: Antimycobacterial activity against Mycobacterium tuberculosis H37Rv infected in CF-1 mouse assessed as change in survival time at 2 mg/kg administrated daily for 14 days with food relative to control. The data set is classed as functional.
Data set [4] deals with Mycobacterium tuberculosis. As to the kind of experiment: Antimycobacterial activity against Mycobacterium tuberculosis H37Rv infected in CF-1 mouse assessed as change in survival time at 5 mg/kg administrated daily for 14 days with food relative to control. Format: functional.
Data set [5] relates to Mycobacterium leprae. As to the kind of experiment: Anti-leprotic activity against Mycobacterium leprae subcultures at 4 weeks assessed as [3H]thymidine uptake per 5 times 10^7 cells at 0.005 mg/L (reference value: 1.28 +/- 0.14 pmol). The data set is classed as functional.
Data set [6] has as its system Mycobacterium leprae. In words: Anti-leprotic activity against Mycobacterium leprae subcultures at 4 weeks assessed as ATP level per 10^7 cells at 0.025 mg/L measured by bioluminescence assay (reference value: 462 +/- 64 pg). The data set is classed as functional.
The subject of data set [7] is Mycobacterium leprae. As to the kind of experiment: Antimicrobial activity against Mycobacterium leprae. The data set is classed as functional.
Data set [8] deals with Mycobacterium leprae. In words: Anti-leprotic activity against Mycobacterium leprae primary cultures at 4 weeks assessed as [3H]thymidine uptake per 5 times 10^7 cells at 0.01 mg/L (reference value: 0.95 +/- 0.01 pmol). Format: functional.
Data set [9] concerns Mycolicibacterium smegmatis. As to the kind of experiment: Antimycobacterial activity against DDS resistant Mycobacterium smegmatis ATCC 607 […]. Format: functional.
Data set [10] concerns Mycobacterium leprae. In words: Anti-leprotic activity against Mycobacterium leprae primary cultures at 4 weeks assessed as [3H]thymidine uptake per 5 times 10^7 cells at 0.025 mg/L (reference value: 0.95 +/- 0.01 pmol). Format: functional.
The subject of data set [11] is Mycobacterium leprae. As to the kind of experiment: Anti-leprotic activity against Mycobacterium leprae primary cultures at 4 weeks assessed as ATP level per 10^7 cells at 0.005 mg/L measured by bioluminescence assay (reference value: 314 +/- 46 pg). The data set is classed as functional.
In data set [12] the test system is Mycobacterium leprae. As to the kind of experiment: Anti-leprotic activity against Mycobacterium leprae subcultures at 4 weeks assessed as ATP level per 10^7 cells at 0.005 mg/L measured by bioluminescence assay (reference value: 462 +/- 64 pg). The data set is classed as functional.
The test system of data set [13] is Mycobacterium leprae. As to the kind of experiment: Anti-leprotic activity against Mycobacterium leprae subcultures at 4 weeks assessed as [3H]thymidine uptake per 5 times 10^7 cells at 0.01 mg/L (reference value: 1.28 +/- 0.14 pmol). Format: functional.
For data set [14], the system named is Mycobacterium leprae. As to the kind of experiment: Anti-leprotic activity against Mycobacterium leprae subcultures at 4 weeks assessed as [3H]thymidine uptake per 5 times 10^7 cells at 0.025 mg/L (reference value: 1.28 +/- 0.14 pmol). Format: functional.
The subject of data set [15] is Mycobacterium leprae. In words: Anti-leprotic activity against Mycobacterium leprae primary cultures at 4 weeks assessed as ATP level per 10^7 cells at 0.01 mg/L measured by bioluminescence assay (reference value: 314 +/- 46 pg). Format: functional.
A short description of data set [16]: Drug excretion in rat urine at 400 mg/kg, sc administered as single dose measured after 30 days. The data set is classed as ADME, organism-based. To be noted: read-out: Drug excretion.
A short description of data set [17]: Drug concentration in rat blood at 400 mg/kg, sc administered as single dose. Format: ADME, organism-based. To be noted: in vivo.
Data set [18] has as its system Mycobacterium leprae. As to the kind of experiment: Anti-leprotic activity against Mycobacterium leprae infected in CBA mouse assessed as number of Mycobacterium leprae in paw pads at 30 mg/kg administrated 5 times a week and measured 7.5 months post infection (reference value: 3.91 +/- 0.33 10^5). The data set is classed as functional.
Data set [19] relates to Rattus norvegicus. As to the kind of experiment: Effect of metallo-protein haemoglobin in rat assessed as peak methemoglobin level at 400 mg/kg, sc administered as single dose. To be noted: in vivo. Format: ADME, organism-based.
Data set [20] relates to Mycobacterium leprae. In words: Anti-leprotic activity against Mycobacterium leprae subcultures at 4 weeks assessed as ATP level per 10^7 cells at 0.01 mg/L measured by bioluminescence assay (reference value: 462 +/- 64 pg). The data set is classed as functional.
Data set [21] has as its system Mycobacterium leprae. In words: Anti-leprotic activity against Mycobacterium leprae primary cultures at 4 weeks assessed as ATP level per 10^7 cells at 0.025 mg/L measured by bioluminescence assay (reference value: 314 +/- 46 pg). Format: functional.
For data set [22], the system named is Mycobacterium leprae. As to the kind of experiment: Anti-leprotic activity against Mycobacterium leprae primary cultures at 4 weeks assessed as [3H]thymidine uptake per 5 times 10^7 cells at 0.005 mg/L (reference value: 0.95 +/- 0.01 pmol). Format: functional.
Data set [23] concerns Mycobacterium leprae. In words: Inhibition of PGL1 synthesis in Mycobacterium leprae infected Swiss Webster mouse macrophages assessed as decrease in [U-14C]PA incorporation at 20 uM preincubated for 4 days post infection followed by [U-14C]PA addition and measured after 7 days by liquid scintillation counter analysis relative to control. Format: functional.
In data set [24] the test system is Mycobacterium leprae. In words: Anti-leprotic activity against Mycobacterium leprae infected in BALB/c mouse assessed as time delay in bacterial multiplication in footpad at 0.0001 g/100g of diet administered via feed starting 60 or 75 day post infection up to 90 days by Shepard's kinetic method. The data set is classed as functional.
The test system of data set [25] is Mycolicibacterium smegmatis. As to the kind of experiment: Antimycobacterial activity against DDS sensitive Mycobacterium smegmatis ATCC 607 […]. Format: functional.
Data set [26] concerns Mycobacterium leprae. As to the kind of experiment: Anti-leprotic activity against Mycobacterium leprae infected in CBA mouse assessed as number of Mycobacterium leprae in paw pads at 10 mg/kg administrated 5 times a week and measured 7.5 months post infection (reference value: 3.91 +/- 0.33 10^5). Format: functional.
Data set [27] relates to Plasmodium berghei. In words: Antimalarial activity against Plasmodium berghei infected in albino mouse assessed survival against infection at 400 mg/kg, sc administered as single dose. The data set is classed as functional.
The subject of data set [28] is Mycobacterium leprae. In words: Anti-leprotic activity against Mycobacterium leprae infected in albino mouse assessed survival against infection at 400 mg/kg, sc administered 58 days post-infection and subsequent compound dosing at 200 mg/kg at 0.5, 1 or 2 months interval. Format: functional.
The subject of data set [29] is Mycobacterium leprae. As to the kind of experiment: Inhibition of PGL1 synthesis in Mycobacterium leprae infected Swiss Webster mouse macrophages assessed as decrease in [U-14C]PA incorporation at 2 uM preincubated for 4 days post infection followed by [U-14C]PA addition and measured after 7 days by liquid scintillation counter analysis relative to control. The data set is classed as functional.

In data set [30] the test system is Mycobacterium leprae. In words: Anti-leprotic activity against Mycobacterium leprae infected in 538 CBA mouse assessed as number of Mycobacterium leprae in paw pads at 2 mg/kg administrated via gastric tube 5 times a week and measured 7 months post infection. The data set is classed as functional.
The test system of data set [31] is Mycobacterium leprae. In words: Anti-leprotic activity against Mycobacterium leprae infected in 538 CBA mouse assessed as number of Mycobacterium leprae in paw pads at 4 mg/kg administrated via gastric tube 5 times a week and measured 7 months post infection. The data set is classed as functional.

Take `Clc1ccc(/N=N/c2ccc(NCCCN3CCCCC3)c3c2CCCC3)cc1`: the MST in data set [1] was found to be 78 days; in [2], 42 days; in data set [3] it was 11 days; in [4], 33 days.
Consider `Nc1ccc(S(=O)(=O)c2ccc(N)cc2)cc1` [DAPSONE], for which the Activity in data set [5] is on record as 1.37 pmol; in [6] it was 0 pg; in [8], 0.79 pmol; in [10], 0 pmol; in [11], 334 pg; in data set [12], 514 pg. Also, the Activity in data set [13] stood at 0.92 pmol; in [14], 0 pmol; in data set [15], 307 pg; in data set [18], 0.22 ×10⁵ No_unit; in [19] it was 3.9 g/dL; in data set [20], 396 pg. Moreover, the Activity is given as 0 pg in data set [21], 0.98 pmol in data set [22], 0.27 ×10⁵ No_unit in data set [26] and 0.025 ×10⁷ No_unit in data set [30]. Also, the figures for the MIC in data set [7], in data set [9] and in data set [25] were 15 µg/mL (≈ 60.4 µM), 3220 µg/mL (≈ 13000 µM) and 8.1 µg/mL (≈ 32.6 µM), respectively. Further, in [16], the dose excreted at 720 h amounted to 57%. The Drug uptake in [17] turned out to be 13.8 µg/mL. For the same compound, in [23], the inhibition at 20 µM is 91%. The Time in data set [24] was over 91 days. The results for the Survival in data set [27] and in [28] were under 1 weeks and 2 weeks, respectively. In addition, in data set [29], the inhibition at 2 µM was determined as 92%.
On to `CCN(CC)C(=S)Sc1ncc([N+](=O)[O-])cc1C#N`, for which the values for the Activity in data set [18], in data set [31] and in [26] were 0.06 ×10⁵ No_unit, 0.042 ×10⁷ No_unit and 0.56 ×10⁵ No_unit, respectively.
